# Source: patent publication US20170107207A1, “AMINOPYRAZOLONE DERIVATIVE” (DAIICHI SANKYO COMPANY, LIMITED, priority 2014, published 2017)
# Columns and labels:
# Assay type in all cases: in vivo
# [1] = test system: Lung cancer cell line COR-L23 cells; test: Antitumor test, mouse subcutaneous transplantation model, COR-L23; settings: COR-L23 in nude mice, 4 consecutive days, tumor measured next day
# From the text: (§1) In vivo test of test compound: Antitumor test using mouse subcutaneous transplantation model
# Lung cancer cell line COR-L23 cells were dissociated from a culture flask by trypsin treatment, then suspended in an RPMI1640 medium containing 10% FBS, and then centrifuged to remove the supernatant. The cells were washed with this medium twice and then suspended in PBS. The cell suspension was subcutaneously transplanted at a dose of 5×10^6 cells/mouse to the right axillary regions of 6-week-old nude mice (BALB/cAJc1-nu/nu, CLEA Japan, Inc.). The test was conducted by using cancer-bearing mice having an estimated tumor volume (major axis×minor axis×minor axis/2) of 100 to 150 mm3 and grouping the cancer-bearing mice without significant difference in average estimated tumor volume from a negative control group. The compound of Example 113 was suspended in solvent (EtOH/DMA/Solutol HS-15/PEG400/5% HMPC). The suspension was orally administered to each mouse once a day (QD) at a dose of 75, 150, or 300 mg/kg for 4 consecutive days. On the next day, the tumor sizes were measured.
# (§2) The rate of tumor growth inhibition was also calculated in this test according to the following expression and is shown in a table.
# (§3) Rate of tumor growth inhibition (%)=100−(Average value of the tumor volumes of the test compound administration group)/(Average value of the tumor volumes of the vehicle administration group)×100.
# [2] = test system: Lymphoma cell line RAMOS cells; test: Antitumor test, mouse subcutaneous transplantation model, RAMOS; settings: RAMOS in SCID mice, 4 consecutive days, tumor measured next day
# From the text: as §1
# Lymphoma cell line RAMOS cells were suspended in a culture flask and then centrifuged to remove a supernatant. The cells were washed with PBS (phosphate buffered saline, Life Technologies Corp.) twice and then suspended in PBS. The cell suspension was subcutaneously transplanted at a dose of 1×10^7 cells/mouse to the right axillary regions of 6-week-old SCID mice (FOX CHASE SCID C.B.17/Icr-scid/scidJcl, CLEA Japan, Inc.). The test was conducted by using cancer-bearing mice having an estimated tumor volume (major axis×minor axis×minor axis/2) of 200 to 350 mm3 and grouping the cancer-bearing mice without significant difference in average estimated tumor volume from a negative control group. The compound of Example 113 was suspended in a solvent (EtOH/DMA/Solutol HS-15/PEG400/5% HMPC). The suspension was orally administered to each mouse twice a day (BID) at a dose of 25, 50, 100, or 200 mg/kg for 4 consecutive days. On the next day, the tumor sizes were measured.
# as §2, §3
# [3] = test system: Liver cancer cell line HUH-7 cells; test: Antitumor test, mouse subcutaneous transplantation model, HUH-7; settings: HUH-7 in nude mice, 4 consecutive days, tumor measured three days after final administration
# From the text: as §1
# Liver cancer cell line HUH-7 cells were dissociated from a culture flask by trypsin treatment, then suspended in an RPMI1640 medium containing 10% FBS, and then centrifuged to remove the supernatant. The cells were washed with PBS twice and then suspended in BD Matrigel Basement Membrane Matrix (manufactured by BD Biosciences). The cell suspension was subcutaneously transplanted at a dose of 5×10^6 cells/mouse to the right axillary regions of 6-week-old nude mice (CAnN.Cg-Foxn1[nu]/CrlCrlj[Foxn1nu/Foxn1nu], Charles River Laboratories Japan, Inc.). The test was conducted by using cancer-bearing mice having an estimated tumor volume (major axis×minor axis×minor axis/2) of 70 to 180 mm3 and grouping the cancer-bearing mice without significant difference in average estimated tumor volume from a negative control group. The compound of Example 113 was suspended in solvent (EtOH/DMA/Solutol HS-15/PEG400/5% HMPC). The suspension was orally administered to each mouse twice a day (BID) at a dose of 75 or 150 mg/kg for 4 consecutive days. Three days after the final administration date, the tumor sizes were measured.
# The rate of tumor growth inhibition was also calculated in this test according to the following expression and is shown in a table. […]
# [4] = test system: Skin cancer cell line A375 cells; test: Antitumor test, mouse subcutaneous transplantation model, A375; settings: A375 in nude mice, 4 consecutive days, tumor measured next day
# From the text: as §1
# Skin cancer cell line A375 cells were dissociated from a culture flask by trypsin treatment, then suspended in a DMEM medium (Life Technologies Corp.) containing 10% FBS, and then centrifuged to remove the supernatant. The cells were washed with this medium twice and then suspended in PBS. The cell suspension was subcutaneously transplanted at a dose of 3×10^6 cells/mouse to the right axillary regions of 6-week-old nude mice (BALB/cAJc1-nu/nu, CLEA Japan, Inc.). The test was conducted by using cancer-bearing mice having an estimated tumor volume (major axis×minor axis×minor axis/2) of 75 to 150 mm3 and grouping the cancer-bearing mice without significant difference in average estimated tumor volume from a negative control group. The compound of Example 113 was suspended in solvent (EtOH/DMA/Solutol HS-15/PEG400/5% HMPC). The suspension was orally administered to each mouse twice a day (BID) at a dose of 50, 100, or 200 mg/kg for 4 consecutive days. On the next day, the tumor sizes were measured.
# as §2, §3
compound,measurement,setting,value
"CCOc1cc(F)c(Cl)cc1C(=O)NCC(C)(C)CC(=O)Nc1c(COC)n(C)n(-c2ccccc2)c1=O [Example 113, 5-Chloro-2-ethoxy-4-fluoro-N-(4-{[5-(methoxymethyl)-1-methyl-3-oxo-2-phenyl-2,3-dihydro-1H-pyrazol-4-yl]amino}-2,2-dimethyl-4-oxobutyl)benzamide]",Rate of tumor growth inhibition (%),[1]; 75 mg/kg orally QD,39%
same,Rate of tumor growth inhibition (%),[1]; 150 mg/kg orally QD,52%
same,Rate of tumor growth inhibition (%),[1]; 300 mg/kg orally QD,81%
same,Rate of tumor growth inhibition (%),[2]; 25 mg/kg orally BID,35%
same,Rate of tumor growth inhibition (%),[2]; 50 mg/kg orally BID,56%
same,Rate of tumor growth inhibition (%),[2]; 100 mg/kg orally BID,72%
same,Rate of tumor growth inhibition (%),[2]; 200 mg/kg orally BID,75%
same,Rate of tumor growth inhibition (%),[3]; 75 mg/kg orally BID,46%
same,Rate of tumor growth inhibition (%),[3]; 150 mg/kg orally BID,63%
same,Rate of tumor growth inhibition (%),[4]; 50 mg/kg orally BID,19%
same,Rate of tumor growth inhibition (%),[4]; 100 mg/kg orally BID,61%
same,Rate of tumor growth inhibition (%),[4]; 200 mg/kg orally BID,86%
